Reference: patent publication US20160262390A1, “FIELD APPLICATION OF SUGARS TO INCREASE CROP YIELD” (Minn-Dak Farmers Cooperative, priority 2015, published 2016)

How the values were obtained:
soybeans [1] = test: Pre-planting sugar application on soybeans, Hickson; assay type: in vivo, soybean; conditions: for Yield / Yield Increase Compared to Check Average: ND
Description: (§1) The field trials were conducted simultaneously in two different planting locations for each of the crops. One location was near the community of Foxhome in Wilkin County, Minnesota (hereafter referred to as “Foxhome”) while the second location was near the community of Hickson in Cass County, North Dakota (hereafter referred to as “Hickson”). The Foxhome and Hickson locations are on opposite sides of the Red River along the border of Minnesota and North Dakota and separated by a distance exceeding 40 miles. Generally, the Foxhome location has heavier clay loam soil conditions while Hickson has sandy loam soil conditions.
(§2) At each of the Foxhome and Hickson locations, a total of thirty two (32) treatments were conducted for each crop (sugarbeets, soybeans, corn, wheat). Each treatment was replicated four times arranged in a Randomized Complete Block (RCB) Design in the same field. Each replication consisted of a plot measuring twenty five (25) feet in length and eleven (11) feet in width. In selecting the particular seed types for evaluation, popular commercial varieties to the region were utilized. For the row crops (sugarbeets, soybeans, corn) each replication included a width of six (6) rows with twenty two (22) inch row spacing and having a row length of twenty five (25) feet. The wheat was planted in accordance with standard commercial practices. To reduce/eliminate any treatment impacts between adjacent plots for the crops, only the four (4) interior rows of each plot were treated and evaluated for row crops, while for wheat, only the interior 7.33 feet of each plot were treated and evaluated. With the exception of the treatment program applied to the individual plots, which will be discussed below, conventional commercial growing practices for each planting location were otherwise followed during the field trials. While the individual plots at the same location, Hickson or Foxhome, experienced essentially the same growing conditions throughout the season, there were various differences associated with localized precipitation, general growing conditions, soil classification and the like, which contributed to performance differences between the Hickson and Foxhome locations.
(§3) The treatment regimen at each location for each of the tested crops included two (2) untreated treatments (Treatments 31 and 32) in which no sugar was applied and constitute the control elements. […] Six (6) treatments (Treatments 13-18) included the liquid application of high fructose corn syrup (hereafter “HFCS”) at varying rates. Six treatments (Treatments 19-24) included the liquid application of dextrose (hereafter “LIQDEX”) at varying rates. Six (6) treatments (Treatments 25-30) included the application of powdered cellulose (hereafter “POWCEL”) at varying rates. For the sugar applied in a solid form, granulated or powdered, field application was conducted via conventional broadcast spreading. For the sugar applied in a liquid form, a liquid concentrate was mixed and diluted with water in a tank and a conventional sprayer was configured such that the liquid was sprayed so as to have the same sugar equivalent (measured in pounds/per acre) as the sugar in solid form. Regardless of whether the sugar was applied as a solid or liquid, the sugar was applied directly onto the soil before spring tillage, lightly worked into the ground and followed by planting of the crop seed in the treated ground. A summary of application rates for each plot treatments are contained in Table 7 below and were used consistently with each of the crops (sugarbeets, soybeans, corn, wheat).
(§4) To test the impact of pre-planting application rates and sugar source on soybeans, identical field trials using Syngenta brand soybean seed were conducted at the Foxhome and Hickson locations. Planting of the soybean seed and harvest of the soybeans were conducted on approximately the same dates so as to have essentially the same growing season. […]

[2] = tested on: microflora that are present in the soil; test: Solvita Soil CO2-Burst test of pre-emergent soil samples, soybean trial in Hickson
Description: In an attempt to quantify this boost, soil samples were taken during some of the previously discussed trials. These samples were tested using a standard Solvita Soil CO2-Burst Test Kit to generate measurements associated with CO2 respiration which can be used as an indicator of active soil carbon, soil microbial biomass and the potential for nutrient release beneficial to crop production. Generally, the higher the measured levels of CO2, the more advantageous the soil is for crop production.
The results of the CO2-Burst Testing are summarized in Table 17 below (using the replication designations from Table 7): […]

corn [3] = test: Pre-planting sugar application on corn, Foxhome; assay type: in vivo; conditions: for Yield / Yield Increase Compared to Check Average: MN
Description: as §1, §2, §3
as §4, with “corn,” for “soybeans,”, “Peterson Farms” for “Syngenta”, “corn” for “soybean”, “corn” for “soybeans”, “on” for “on approximately”

corn [4] = test: Pre-planting sugar application on corn, Hickson; assay type: in vivo; conditions: for Yield / Yield Increase Compared to Check Average: ND
Description: as §1, §2, §3
as §4, with “corn,” for “soybeans,”, “Peterson Farms” for “Syngenta”, “corn” for “soybean”, “corn” for “soybeans”, “on” for “on approximately”

soybeans [5] = test: Pre-planting sugar application on soybeans, Foxhome; assay type: in vivo, soybean; conditions: for Yield / Yield Increase Compared to Check: MN
Description: as §1, §2, §3, §4

wheat = test: Pre-planting sugar application on wheat, Hickson; assay type: in vivo; conditions: ND
Description: as §1, §2, §3
as §4, with “wheat,” for “soybeans,”, “Westbred Mayville wheat” for “Syngenta brand soybean”, “wheat” for “soybean”, “wheat” for “soybeans”, “on” for “on approximately”

[6] = six rates (25-250 pounds/Acre) per sugar, thirty in all

Compound: OC[C@H]1O[C@@](CO)(O[C@H]2O[C@H](CO)[C@@H](O)[C@H](O)[C@H]2O)[C@@H](O)[C@@H]1O [LIQSUC, sucrose]
- Yield (soybeans [1]; pre-planting 25 pounds/Acre): 61.90 Bushels/Acre
- Yield Increase Compared to Check Average (soybeans [1]; pre-planting 25 pounds/Acre): 0.24%
- Yield (soybeans [1]; pre-planting 50 pounds/Acre): 61.87 Bushels/Acre
- Yield Increase Compared to Check Average (soybeans [1]; pre-planting 50 pounds/Acre): 0.19%
- Yield (soybeans [1]; pre-planting 100 pounds/Acre): 59.52 Bushels/Acre
- Yield Increase Compared to Check Average (soybeans [1]; pre-planting 100 pounds/Acre): −3.61%
- Yield (soybeans [1]; pre-planting 150 pounds/Acre): 59.71 Bushels/Acre
- Yield Increase Compared to Check Average (soybeans [1]; pre-planting 150 pounds/Acre): −3.30%
- Yield (soybeans [1]; pre-planting 200 pounds/Acre): 61.36 Bushels/Acre
- Yield Increase Compared to Check Average (soybeans [1]; pre-planting 200 pounds/Acre): −0.63%
- Yield (soybeans [1]; pre-planting 250 pounds/Acre): 61.03 Bushels/Acre
- Yield Increase Compared to Check Average (soybeans [1]; pre-planting 250 pounds/Acre): −1.17%
- number of treatments showing negative yield benefits compared to check average (soybeans [1]; six rates per sugar): four of the six
- CO2 Burst ppm ([2]; sugar amount 50 pounds/acre): 49 ppm
- CO2 Increase as Compared to Check Average ([2]; sugar amount 50 pounds/acre): 7.69%
- CO2 Burst ppm ([2]; sugar amount 150 pounds/acre): 45 ppm
- CO2 Increase as Compared to Check Average ([2]; sugar amount 150 pounds/acre): −1.10%
- CO2 Burst ppm ([2]; sugar amount 250 pounds/acre): 55 ppm
- CO2 Increase as Compared to Check Average ([2]; sugar amount 250 pounds/acre): 20.88%
- Yield (corn [3]; pre-planting 25 pounds/Acre): 264.82 Bushels/Acre
- Yield Increase Compared to Check Average (corn [3]; pre-planting 25 pounds/Acre): −0.35%
- Yield (corn [3]; pre-planting 50 pounds/Acre): 274.43 Bushels/Acre
- Yield Increase Compared to Check Average (corn [3]; pre-planting 50 pounds/Acre): 3.26%
- Yield (corn [3]; pre-planting 100 pounds/Acre): 264.79 Bushels/Acre
- Yield Increase Compared to Check Average (corn [3]; pre-planting 100 pounds/Acre): −0.36%
- Yield (corn [3]; pre-planting 150 pounds/Acre): 270.66 Bushels/Acre
- Yield Increase Compared to Check Average (corn [3]; pre-planting 150 pounds/Acre): 1.84%
- Yield (corn [3]; pre-planting 200 pounds/Acre): 271.85 Bushels/Acre
- Yield Increase Compared to Check Average (corn [3]; pre-planting 200 pounds/Acre): 2.29%
- Yield (corn [3]; pre-planting 250 pounds/Acre): 263.78 Bushels/Acre
- Yield Increase Compared to Check Average (corn [3]; pre-planting 250 pounds/Acre): −0.75%
- number of treatments showing yield improvement compared to check average (corn [3]; [6]): three of the six
- Yield (corn [4]; pre-planting 25 pounds/Acre): 163.69 Bushels/Acre
- Yield Increase Compared to Check Average (corn [4]; pre-planting 25 pounds/Acre): 5.93%
- Yield (corn [4]; pre-planting 50 pounds/Acre): 162.57 Bushels/Acre
- Yield Increase Compared to Check Average (corn [4]; pre-planting 50 pounds/Acre): 5.21%
- Yield (corn [4]; pre-planting 100 pounds/Acre): 160.94 Bushels/Acre
- Yield Increase Compared to Check Average (corn [4]; pre-planting 100 pounds/Acre): 4.15%
- Yield (corn [4]; pre-planting 150 pounds/Acre): 165.35 Bushels/Acre
- Yield Increase Compared to Check Average (corn [4]; pre-planting 150 pounds/Acre): 7.01%
- Yield (corn [4]; pre-planting 200 pounds/Acre): 164.24 Bushels/Acre
- Yield Increase Compared to Check Average (corn [4]; pre-planting 200 pounds/Acre): 6.29%
- Yield (corn [4]; pre-planting 250 pounds/Acre): 166.53 Bushels/Acre
- Yield Increase Compared to Check Average (corn [4]; pre-planting 250 pounds/Acre): 7.77%
- number of treatments showing yield improvement compared to check average (corn [4]; [6]): each of their six
- Yield (soybeans [5]; pre-planting 25 pounds/Acre): 67.82 Bushels/Acre
- Yield Increase Compared to Check (soybeans [5]; pre-planting 25 pounds/Acre): −1.05%
- Yield (soybeans [5]; pre-planting 50 pounds/Acre): 72.08 Bushels/Acre
- Yield Increase Compared to Check (soybeans [5]; pre-planting 50 pounds/Acre): 5.16%
- Yield (soybeans [5]; pre-planting 100 pounds/Acre): 71.28 Bushels/Acre
- Yield Increase Compared to Check (soybeans [5]; pre-planting 100 pounds/Acre): 4.00%
- Yield (soybeans [5]; pre-planting 150 pounds/Acre): 70.57 Bushels/Acre
- Yield Increase Compared to Check (soybeans [5]; pre-planting 150 pounds/Acre): 2.96%
- Yield (soybeans [5]; pre-planting 200 pounds/Acre): 68.33 Bushels/Acre
- Yield Increase Compared to Check (soybeans [5]; pre-planting 200 pounds/Acre): −0.31%
- Yield (soybeans [5]; pre-planting 250 pounds/Acre): 72.14 Bushels/Acre
- Yield Increase Compared to Check (soybeans [5]; pre-planting 250 pounds/Acre): 5.25%
- number of treatments showing yield improvement compared to check treatment 31 (soybeans [5]; [6]): four of the six
- Yield (wheat; pre-planting 25 pounds/Acre): 47.09 Bushels/Acre
- Yield Increase Compared to Check (wheat; pre-planting 25 pounds/Acre): −4.17%
- Yield (wheat; pre-planting 50 pounds/Acre): 53.46 Bushels/Acre
- Yield Increase Compared to Check (wheat; pre-planting 50 pounds/Acre): 8.79%
- Yield (wheat; pre-planting 100 pounds/Acre): 50.09 Bushels/Acre
- Yield Increase Compared to Check (wheat; pre-planting 100 pounds/Acre): 1.93%
- Yield (wheat; pre-planting 150 pounds/Acre): 46.03 Bushels/Acre
- Yield Increase Compared to Check (wheat; pre-planting 150 pounds/Acre): −6.33%
- Yield (wheat; pre-planting 200 pounds/Acre): 48.31 Bushels/Acre
- Yield Increase Compared to Check (wheat; pre-planting 200 pounds/Acre): −1.69%
- Yield (wheat; pre-planting 250 pounds/Acre): 50.24 Bushels/Acre
- Yield Increase Compared to Check (wheat; pre-planting 250 pounds/Acre): 2.24%
